Data as given in patent EP0072532A1, “5(6)-Phenyl-sulfonyloxy-benzimidazole derivatives, process for their production, pharmaceutical compositions containing them and their use against liver disorders” (priority 1981, dated 1983).
Read-outs that look alike come from different tables or passages of the source.

Key:
Fasciola hepatica [1] = assay: Chemotherapeutic test against adult liver flukes in artificially infected rats (reduction of egg count per gram faeces), oral application; type: in vivo; settings: Ratte
Description: (§1) Zur Feststellung der Wirkung der erfindungsgemäßen Verbindungen gegen Fasciolide wurden chemotherapeutische Untersuchungen bei ca. 250 g schweren Ratten, bei 2 - 3,5 kg schweren Kaninchen oder an ca. 25 - 30 kg schweren Schaflämmern ausgeführt. Die Versuchstiere wurden mit 15, mit 50 bzw. mit 350 Metazerkarien von Fasciola hepatica artifiziell oral infiziert. Nach Ablauf der Präpatenzperiode (Zeit zwischen Infektion und Geschlechtsreife der Parasiten mit beginnender Ausscheidung von Vermehrungsprodukten) wurde der Parasitenbefall durch Kotuntersuchungen gesichert. Der qualitativ-quantitative Nachweis von Eiern erfolgte nach der Telemann-Anreicherung (Deutsche Medizinische Wochenschrift "34: 1510, 1908).
(§2) Unmittelbar nach der Bestimmung der Eizahl pro Gramm Kot wurde die Behandlung der Versuchstiere (im allgemeinen 3 - 4 Tiere pro Wirkstoff, mindestens aber zwei) vorgenommen. Den Tieren wurde oral eine Suspension von unterschiedlicher Wirkstoffmenge in jeweils festgelegten Volumen (Ratte: 0,5 ml/Tier, Kaninchen: 2 ml/Tier, Schaf: 10 ml/Tier) in einer Tylose-Suspension appliziert. Jeweils am 7., 14. und 28. Tag nach der Behandlung wurde wiederum nach der vorstehend angegebenen Methode die Eizahl pro Gramm Kot ermittelt und die prozentuale Abnahme im Vergleich zum Ausgangswert vor der Behandlung und in Vergleich zu unbehandelten Kontrolltieren errechnet.
(§3) Mit einigen erfindungsgemäßen Verbindungen wurden außerdem beim Fasciola-Befall noch eine zusätzliche Prüftechnik angewandt: Nach Abschluß der Präpatenzperiode wurde bei Fasciola-positiven Schafen ein künstlicher Gallengang geschaffen, der am Ausgang der Gallenblase ein Sieb enthielt, so daß die nach der Behandlung abgetöteten Leberegel in der Gallenblase aufgefangen werden konnten. Vier bis sieben Tage nach der Behandlung wurden die so operierten und dann behandelten Schafe getötet, die abgetöteten Leberegel in der Gallenblase so wie noch eventuell in der Leber vorhandene Leberegel gezählt und von der gesamten Wurmbürde der Prozentsatz der abgetöteten Parasiten berechnet. Bei ausgewählten Substanzen wurden über die Kotuntersuchung hinaus auch die behandelten Tiere seziert und die Leber auf eine eventuelle Rest-Wurmbürde von Fasciola hepatica untersucht.

Fasciola hepatica [2] = assay: Chemotherapeutic test against adult liver flukes in artificially infected rabbits (reduction of egg count per gram faeces), oral application; type: in vivo; settings: Kaninchen
Description: as §1, with “gesichert.” for “gesichert. Der qualitativ-quantitative Nachweis von Eiern erfolgte nach der Telemann-Anreicherung (Deutsche Medizinische Wochenschrift "34: 1510, 1908).”
as §2, §3

Fasciola hepatica [3] = assay: Chemotherapeutic test against adult liver flukes in artificially infected sheep (egg count reduction / killed flukes), oral application; type: in vivo, Schaf
Description: as §1, §2, §3

in vivo = settings: sheep, quotient of Dosis tolerata maxima and applied dose, read-out: Sicherheits-faktor
Description: Eine einmalige Verabreichung der erfindungsgemäßen Wirkstoffe in den angegebenen Dosierungen führt zu einem völligen Aufhören der Eiausscheidung und einer nahezu 100 %igen Befreiung der Tiere von Fasciola hepatica. Alle Dosierungen wurden von den Tieren ohne Nebenerscheinungen vertragen. Dieses wird durch den Sicherheitsfaktor unterstrichen, der wesentlich günstiger ist als bei den zum Vergleich herangezogenen Wirkstoffen
Der Sicherheitsfaktor gibt den Quotienten aus Dosis tolerate maxima und angewandter Dosis an. Die Ergebnisse dieser Versuche sind in der nachstehenden Tabelle zusammengestellt.

[4] = 75 mg/kg peroral, adult liver flukes

Structure (SMILES)	Wirkung % (Fasciola hepatica [1]; 4 mg/kg peroral) [%]	Wirkung % (Fasciola hepatica [1]; 8 mg/kg peroral) [%]	Wirkung % (Fasciola hepatica [2]; 4 mg/kg peroral, death printed instead of an efficacy value)	Wirkung % (Fasciola hepatica [3]; Schaf, 1,5 mg/kg peroral) [%]	Wirkung % (Fasciola hepatica [3]; Schaf, 3,0 mg/kg peroral) [%]	selectivity ratio (in vivo; applied dose 3,0 mg/kg (Schaf))	Wirkung % (Fasciola hepatica [1]; 50 mg/kg peroral) [%]	Wirkung % (Fasciola hepatica [1]; 75 mg/kg peroral) [%]	Wirkung % (Fasciola hepatica [2]; [4]) [%]	Wirkung % (Fasciola hepatica [2]; <50 mg/kg peroral, adult liver flukes) [%]	Wirkung % (Fasciola hepatica [3]; Schaf, 7,5 mg/kg peroral) [%]	Wirkung % (Fasciola hepatica [3]; Schaf, 10,0 mg/kg peroral) [%]	Wirkung % (Fasciola hepatica [1]; 135 mg/kg peroral) [%]	Wirkung % (Fasciola hepatica [1]; 200 mg/kg peroral) [%]	Wirkung % (Fasciola hepatica [2]; 50 mg/kg peroral, adult liver flukes) [%]	Wirkung % (Fasciola hepatica [3]; Schaf, 3,75 mg/kg peroral)	selectivity ratio (in vivo; applied dose 3,75 mg/kg (Schaf))	selectivity ratio (in vivo; applied dose 7,5 mg/kg (Schaf))
O=[N+]([O-])c1cc(Cl)cc(-c2cc(Cl)cc([N+](=O)[O-])c2O)c1O [Niclofolan, 5,5'-Dichlor-2,2`-dihydroxy-3,3'-dinitro-phenyl]	80	90	Exitus	<50	>90	4.4												
CSc1nc2cc(OS(=O)(=O)c3cccc(C(F)(F)F)c3)ccc2[nH]1 [Beispiel 1, 5(6)-(3-Trifluormethyl-phenylsulfonyloxy)-2-methylmercapto-benzimidazol]							80	100	100	100	>95	100						
CC(=O)Oc1c(I)cc(I)cc1C(=O)Nc1ccc(Cl)cc1 [Clioxanide, 2-Acetoxy-4-chlor-3,5-dijod-benzanilid]									0		>90		0	0	0	ca.50%	30	15
